# Data from US20200131196A1 (Mount Tam Therapeutics, Inc., priority 2017, published 2020).
# Read-outs that look alike come from different tables or passages of the source.
# Key:
# Format in all cases: cell-based, human
# [1] = tested on: NCIH446; experiment: OncoPanel cell proliferation assay, NCIH446
# Experimental: (§1) Cells were grown in RPMI 1640, 10% FBS, 2 mM L-alanyl-L-glutamine, 1 mM Na pyruvate, or a special medium. Cells were seeded into 384-well plates and incubated in a humidified atmosphere of 5% CO2 at 37° C. Compounds were added the day following cell seeding. At the same time, a time zero untreated cell plate was generated. After a 3-day incubation period, cells were fixed and stained to allow fluorescence imaging of nuclei. Compounds (1 mM stock solutions) were serially diluted in half-log steps from the highest test concentration ([…]), and assayed over 10 concentrations with a maximum assay concentration of 0.1% DMSO. Automated fluorescence microscopy was carried out using a Molecular Devices ImageXpress Micro XL high-content imager, and images were collected with a 4× objective. 16-bit TIFF images were acquired and analyzed with MetaXpress 5.1.0.41 software.
# (§2) Cell proliferation was measured by the fluorescence intensity of an incorporated nuclear dye. The output is referred to as the relative cell count, where the measured nuclear intensity is transformed to percent of control (POC) using the following formula: […]
# (§3) Cellular response parameters were calculated using nonlinear regression to a sigmoidal single-site dose response model:
# (§4) EC50 is the test compound concentration at the curve inflection point or half the effective response (parameter C of the fitted curve solution). GI50 is the concentration needed to reduce the observed growth by half (midway between the curve maximum and the time zero value). “Cell Count Activity Area” is an estimate of the integrated area above the curve (Barretina, et al. The Cancer Cell Line Encyclopedia enables predictive modelling of anticancer drug sensitivity. Nature 483: 603-607). […] In rare instances, values <0 or >10 may be observed. […] Curve-fitting, calculations, and report generation was performed using a custom data reduction engine and MathIQ based software (AIM).
# [2] = tested on: Hs 729; experiment: OncoPanel cell proliferation assay, Hs 729
# Experimental: as §1, §2, §3, §4
# [3] = tested on: 786-O; experiment: OncoPanel cell proliferation assay, 786-O
# Experimental: as §1, §2, §3, §4
# [4] = tested on: A101D; experiment: OncoPanel cell proliferation assay, A101D
# Experimental: as §1, §2, §3, §4
# [5] = tested on: A431; experiment: OncoPanel cell proliferation assay, A431
# Experimental: as §1, §2, §3, §4
# [6] = tested on: CRO-AP2; experiment: OncoPanel cell proliferation assay, CRO-AP2
# Experimental: as §1, §2, §3, §4
# [7] = tested on: CEM-C1; experiment: OncoPanel cell proliferation assay, CEM-C1
# Experimental: as §1, §2, §3, §4
# [8] = Homo sapiens, read-out: Cell Count EC50
# [9] = Homo sapiens, read-out: Cell Count GI50
# [10] = Homo sapiens, read-out: Cell Count IC50
compound,measurement,setting,value
"CO[C@H]1C[C@@H]2CC[C@@H](C)[C@@](O)(O2)C(=O)C(=O)N2CCCC[C@H]2C(=O)O[C@H]([C@H](C)C[C@H]2C[C@H]3C[C@@H]2C[C@@H]3O)CC(=O)[C@H](C)/C=C(\C)[C@@H](O)[C@@H](OC)C(=O)[C@H](C)C[C@H](C)/C=C/C=C/C=C/1C [Formula II, C37-[(1R,2S,4R,5S)-5-hyhroxybicyclo[2.2.1]heptane] rapamycin]",Cell Count Activity Area,[1],1.23
same,Relative cell count (%) Mean,[1]; 1.00E+00 microM,80.9%
same,Relative cell count (%) Mean,[1]; 1.00E-01 microM,83.6%
same,Relative cell count (%) Mean,[1]; 1.00E-02 microM,83.2%
same,Relative cell count (%) Mean,[1]; 1.00E-03 microM,93.7%
same,Relative cell count (%) Mean,[1]; 1.01E-04 microM,102.5%
same,Relative cell count (%) Mean,[1]; 3.16E-01 microM,74.9%
same,Relative cell count (%) Mean,[1]; 3.17E-02 microM,83.3%
same,Relative cell count (%) Mean,[1]; 3.17E-03 microM,85.8%
same,Relative cell count (%) Mean,[1]; 3.18E-04 microM,87.3%
same,Relative cell count (%) Mean,[1]; 3.18E-05 microM,94.2%
same,EC50,"[1]; Homo sapiens, NCI-H446, read-out: Cell Count EC50",> 1000 nM
same,GI50,"[1]; Homo sapiens, NCI-H446, read-out: Cell Count GI50",> 1000 nM
same,IC50,"[1]; Homo sapiens, NCI-H446, read-out: Cell Count IC50",> 1000 nM
same,Cell Count Activity Area,[2],0.91
same,Relative cell count (%) Mean,[2]; 1.00E+00 microM,73.3%
same,Relative cell count (%) Mean,[2]; 1.00E-01 microM,81.0%
same,Relative cell count (%) Mean,[2]; 1.00E-02 microM,91.1%
same,Relative cell count (%) Mean,[2]; 1.00E-03 microM,97.1%
same,Relative cell count (%) Mean,[2]; 1.01E-04 microM,105.0%
same,Relative cell count (%) Mean,[2]; 3.16E-01 microM,74.8%
same,Relative cell count (%) Mean,[2]; 3.17E-02 microM,79.3%
same,Relative cell count (%) Mean,[2]; 3.17E-03 microM,98.0%
same,Relative cell count (%) Mean,[2]; 3.18E-04 microM,93.3%
same,Relative cell count (%) Mean,[2]; 3.18E-05 microM,93.2%
same,EC50,[2]; [8],> 1000 nM
same,GI50,[2]; [9],101 nM
same,IC50,[2]; [10],> 1000 nM
same,Relative cell count (%) Mean,"[3]; 786-0, 1.00E+00 microM",36.7%
same,Relative cell count (%) Mean,"[3]; 786-0, 1.00E-01 microM",45.5%
same,Relative cell count (%) Mean,"[3]; 786-0, 1.00E-02 microM",55.7%
same,Relative cell count (%) Mean,"[3]; 786-0, 1.00E-03 microM",78.6%
same,Relative cell count (%) Mean,"[3]; 786-0, 1.01E-04 microM",92.0%
same,Relative cell count (%) Mean,"[3]; 786-0, 3.16E-01 microM",43.3%
same,Relative cell count (%) Mean,"[3]; 786-0, 3.17E-02 microM",48.2%
same,Relative cell count (%) Mean,"[3]; 786-0, 3.17E-03 microM",65.0%
same,Relative cell count (%) Mean,"[3]; 786-0, 3.18E-04 microM",80.1%
same,Relative cell count (%) Mean,"[3]; 786-0, 3.18E-05 microM",96.8%
same,Cell Count Activity Area,[3]; 786-O,4.01
same,EC50,"[3]; Homo sapiens, 786-0, 786-O, read-out: Cell Count EC50",1.59 nM
same,GI50,"[3]; Homo sapiens, 786-0, 786-O, read-out: Cell Count GI50",7.1 nM
same,IC50,"[3]; Homo sapiens, 786-0, 786-O, read-out: Cell Count IC50",16.2 nM
same,Cell Count Activity Area,[4],3.79
same,Relative cell count (%) Mean,[4]; 1.00E+00 microM,52.5%
same,Relative cell count (%) Mean,[4]; 1.00E-01 microM,54.3%
same,Relative cell count (%) Mean,[4]; 1.00E-02 microM,62.0%
same,Relative cell count (%) Mean,[4]; 1.00E-03 microM,75.1%
same,Relative cell count (%) Mean,[4]; 1.01E-04 microM,96.5%
same,Relative cell count (%) Mean,[4]; 3.16E-01 microM,59.6%
same,Relative cell count (%) Mean,[4]; 3.17E-02 microM,56.2%
same,Relative cell count (%) Mean,[4]; 3.17E-03 microM,71.5%
same,Relative cell count (%) Mean,[4]; 3.18E-04 microM,82.7%
same,Relative cell count (%) Mean,[4]; 3.18E-05 microM,100.8%
same,EC50,[4]; [8],0.366 nM
same,GI50,[4]; [9],1.36 nM
same,IC50,[4]; [10],56.2 nM
same,Cell Count Activity Area,[5],1.43
same,Relative cell count (%) Mean,[5]; 1.00E+00 microM,71.4%
same,Relative cell count (%) Mean,[5]; 1.00E-01 microM,80.3%
same,Relative cell count (%) Mean,[5]; 1.00E-02 microM,85.0%
same,Relative cell count (%) Mean,[5]; 1.00E-03 microM,94.6%
same,Relative cell count (%) Mean,[5]; 1.01E-04 microM,103.1%
same,Relative cell count (%) Mean,[5]; 3.16E-01 microM,75.3%
same,Relative cell count (%) Mean,[5]; 3.17E-02 microM,81.8%
same,Relative cell count (%) Mean,[5]; 3.17E-03 microM,96.4%
same,Relative cell count (%) Mean,[5]; 3.18E-04 microM,102.0%
same,Relative cell count (%) Mean,[5]; 3.18E-05 microM,100.9%
same,EC50,"[5]; Homo sapiens, A-431, Skin, Head/Neck, summary Table 5, read-out: EC50",12 nM
same,EC50,"[5]; Homo sapiens, A-431, read-out: Cell Count EC50",12.1 nM
same,GI50,"[5]; Homo sapiens, A-431, read-out: Cell Count GI50",> 1000 nM
same,IC50,"[5]; Homo sapiens, A-431, read-out: Cell Count IC50",> 1000 nM
same,Cell Count Activity Area,[6],4.89
same,Relative cell count (%) Mean,[6]; 1.00E+00 microM,24.8%
same,Relative cell count (%) Mean,[6]; 1.00E-01 microM,27.5%
same,Relative cell count (%) Mean,[6]; 1.00E-02 microM,34.9%
same,Relative cell count (%) Mean,[6]; 1.00E-03 microM,65.3%
same,Relative cell count (%) Mean,[6]; 1.01E-04 microM,100.6%
same,Relative cell count (%) Mean,[6]; 3.16E-01 microM,24.7%
same,Relative cell count (%) Mean,[6]; 3.17E-02 microM,27.0%
same,Relative cell count (%) Mean,[6]; 3.17E-03 microM,47.3%
same,Relative cell count (%) Mean,[6]; 3.18E-04 microM,81.8%
same,Relative cell count (%) Mean,[6]; 3.18E-05 microM,98.0%
same,EC50,[6]; [8],1.07 nM
same,GI50,[6]; [9],1.65 nM
same,IC50,[6]; [10],2.21 nM
same,Cell Count Activity Area,[7],3.13
same,Relative cell count (%) Mean,[7]; 1.00E+00 microM,51.5%
same,Relative cell count (%) Mean,[7]; 1.00E-01 microM,56.2%
same,Relative cell count (%) Mean,[7]; 1.00E-02 microM,66.8%
same,Relative cell count (%) Mean,[7]; 1.00E-03 microM,82.0%
same,Relative cell count (%) Mean,[7]; 1.01E-04 microM,98.1%
same,Relative cell count (%) Mean,[7]; 3.16E-01 microM,52.4%
same,Relative cell count (%) Mean,[7]; 3.17E-02 microM,58.8%
same,Relative cell count (%) Mean,[7]; 3.17E-03 microM,73.0%
same,Relative cell count (%) Mean,[7]; 3.18E-04 microM,92.1%
same,Relative cell count (%) Mean,[7]; 3.18E-05 microM,100.6%
same,EC50,[7]; [8],1.8 nM
same,GI50,[7]; [9],32.5 nM
same,IC50,[7]; [10],265 nM
